{"source": "patent US20100216160A1", "about": "“METHOD FOR THE SCREENING […] ACTIVITY-MODULATING AGENTS AND MEANS FOR CARRYIING OUT SAID METHOD” (CYTOMICS SYSTEMS, priority 2005, published 2010)", "assay_type_in_all_cases": "cell-based, Saccharomyces cerevisiae", "key": {"[1]": {"system": "proteasome of the recombinant yeast cells (CYS343 strain, mAG-p21^WAF1/Cip1 fusion protein)", "test": "Degradation of mAG-p21WAF1/Cip1 fusion protein in CYS343 yeast cells, immunoblotting (Western blotting)", "settings": "50 μM MG132 added with 2% glucose after 120 minutes galactose, 30, 60, 120 and 150 minutes after glucose", "description": "(§1) The degradation of the fusion proteins comprising p21^WAF1/Cip1 or p21[6KR]^WAF1/Cip1 fused with mAG by the proteasome of the recombinant yeast cells of CYS 344 and CYS 343 strains was controlled by an immunoblotting technique, in the presence or in the absence of a proteasome inhibitor, the Mg132 compound.\n(§2) All the yeast strains used were cultured and analyzed in a similar way.\n(§3) The cells were cultured in minimal medium in the presence of galactose as a carbon source for 120 minutes.\n(§4) At the end of these 120 minutes, 2% glucose was added to the culture, in the presence and in the absence of 50 μM of a known proteasome inhibitor, the Mg 132.\nFIG. 3B illustrates the results obtained with the CYS343 recombinant yeast strain. Total proteins were prepared before adding galactose (0), 60 and 120 minutes following the addition of galactose (+galactose 0, 60, 120) and 30, 60, 120 and 150 minutes (+glucose, 30, 60, 120, 150) following the addition of glucose.\n(§5) These proteins were analyzed by immunoblotting technique (“Western blotting”) using an antibody that recognized the p21^WAF1/Cip1 part of the fusion proteins (noted “mAG-p21^WAF1/Cip1” or “mAG-p21[6KR]^WAF1/Cip1” on FIG. 3).\n(§6) The presence of MG132 in the culture is indicated by “+MG132” on FIG. 3. […]"}, "[2]": {"system": "proteasome of the recombinant yeast cells (CYS344 strain, mAG-p21[6KR]^WAF1/Cip1 fusion protein)", "test": "Degradation of mAG-p21[6KR]WAF1/Cip1 fusion protein in CYS344 yeast cells, immunoblotting (Western blotting)", "settings": "50 μM MG132 added with 2% glucose after 120 minutes galactose, 30, 60 and 120 minutes after glucose", "description": "as §1, §2, §3, §4\nThe results are given on FIG. 3 (FIG. 3A and FIG. 3B). FIG. 3A illustrates the results obtained with the CYS344 recombinant yeast strain.\nTotal proteins were prepared before adding galactose (0), 60 and 120 minutes following the addition of galactose (+galactose 0, 60, 120) and 30, 60 and 120 minutes (+glucose, 30, 60, 120) following the addition of glucose.\nas §5, §6"}, "[3]": {"system": "proteasome of yeast cells (CYS344 strain, mAG-p21[6KR]^WAF1/Cip1 fusion protein)", "test": "Flow cytometric quantification (FACS) of fluorescence of mAG-p21[6KR]WAF1/Cip1 fusion protein in CYS344 yeast cells", "settings": "50 μM MG132 added with 2% glucose after 120 minutes galactose, time D1h, D2h, D3h", "description": "(§7) The yeast cells were cultured in the presence or in the absence of the MG132 proteasome inhibitor.\n(§8) All the cells were cultured in minimal medium in the presence of galactose as a carbon source for 120 minutes.\n(§9) At the end of these 120 minutes, 2% glucose was added to the culture, in the presence and in the absence of 50 μM of a known proteasome inhibitor, the MG132.\n(§10) The fluorescence emitted by the cells was quantified using a FacsCalibur flow cytometer (Beckton-Dickinson), immediately before adding galactose (I0), 1 and 2 hour(s) following the addition of galactose (I1 and I2) and 1, 2 and 3 hours (D1, D2 and D3) following the addition of glucose. The presence of Mg132 in the culture is indicated by “+MG132”. The fluorescence is expressed in arbitrary units."}, "[4]": {"system": "proteasome of yeast cells (CYS343 strain, mAG-p21^WAF1/Cip1 fusion protein)", "test": "Flow cytometric quantification (FACS) of fluorescence of mAG-p21WAF1/Cip1 fusion protein in CYS343 yeast cells", "settings": "50 μM MG132 added with 2% glucose after 120 minutes galactose, time D1h, D2h, D3h", "description": "as §7, §8, §9, §10"}, "[5]": {"system": "proteasome of yeast cells (CYS344 strain, mAG-p21[6KR]^WAF1/Cip1 fusion protein)", "test": "Degradation of mAG-p21[6KR]WAF1/Cip1 fusion protein in CYS344 yeast cells, epifluorescence microscopy", "settings": "50 μM MG132 added with 2% glucose after 120 minutes galactose, 0, 60, 120, 180 minutes after glucose", "description": "The yeast cells of the CYS344 strain were cultured in minimal medium in the presence of galactose as a carbon source for 120 minutes.\nas §9\nThe cells were observed using an epifluorescence microscope (fluorescent microscope Nikon Eclipse fitted with an Omega XF116 filter). All the pictures were saved on a Hamamastu® camera using similar settings, then analyzed with the LUCIA G software, immediately before adding glucose (0 minute), and 60, 120 and 180 minutes (60, 120, 180 minutes) following the addition of glucose. The presence of MG132 in the culture is indicated by MG132″."}}, "note": "Residues, ends and D or L forms follow the SMILES beside them. *: point of attachment. Cbz = O=C(OCc1ccccc1)*"}
{"smiles": "CC(C)C[C@@H](C=O)NC(=O)[C@H](CC(C)C)NC(=O)[C@H](CC(C)C)NC(=O)OCc1ccccc1", "note": "[MG132] (Cbz-Leu-Leu-Leu-aldehyde)", "values": [{"measurement": "degradation of the mAG-p21[wt]WAF1/Cip1 fusion protein (Western blotting)", "setting": "[1]", "result": "inhibit the degradation of the fusion protein"}, {"measurement": "degradation of the mAG-p21[6KR]WAF1/Cip1 fusion protein (Western blotting)", "setting": "[2]", "result": "inhibit the degradation of the fusion protein"}, {"measurement": "degradation of the mAG-p21[6KR]WAF1/Cip1 fusion protein (fluorescence, flow cytometry)", "setting": "[3]", "result": "strongly inhibited"}, {"measurement": "degradation of the mAG-p21WAF1/Cip1 fusion protein (fluorescence, flow cytometry)", "setting": "[4]", "result": "strongly inhibited"}, {"measurement": "fluorescence signal intensity of mAG-p21[6KR]WAF1/Cip1 fusion protein versus culture time (epifluorescence microscopy)", "setting": "[5]", "result": "fluorescence signal intensity versus culture time was maintained"}]}
